Measurements reported in the METLIN SMRT retention time set (Domingo-Almenara et al. 2019).

Experiment: gradient 5% acetonitrile 3 min, to 50% in 2 min, to 85% in 15 min, held 3 min, 100 µL/min
Details: column: Zorbax Extend-C18 2.1 x 50 mm; eluents: water / acetonitrile, 0.1% formic acid
Outline: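 Pure standards were analyzed in mixtures of ~100 molecules using HPLC coupled to a quadrupole time-of-flight mass spectrometer, in both positive and negative ionization mode. Separation used a Zorbax Extend-C18 column (2.1 × 50 mm, 1.8 μm) at 100 μL/min, with water and acetonitrile each containing 0.1% formic acid. Dead and dwell volumes were 40 μL and 900 μL, and data were collected over 3 months. Retention time was read from computationally picked adduct peaks, each inspected manually.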

RP-LC retention time [s] | Compound
843 | CC1=C(c2ccccc2)S(=O)(=O)N=C1N1CCCN(C(=O)NCc2ccccc2)CC1
964 | CCc1ccccc1N(CC)C(=O)C1CCCN(c2ncnc3c2nc2n3CCCCC2)C1 (configuration not stated)
569 | COc1cc(OC)c(NC(=O)N2CCC3(C2)c2nc[nH]c2CCN3C)cc1Cl (configuration not stated)
659 | COc1ccc(S(=O)(=O)N2CC3CN(C(=O)C4CCCO4)CC(C2)O3)cc1 (configuration not stated)
920 | CC(C)c1noc(-c2cccnc2N2CCCN(C(=O)NCc3ccccc3)CC2)n1
779 | Cc1ccc(-n2nc3c(N4CCCC(C(=O)NCc5ccccc5C)C4)nnc(C)c3c2C)cc1 (configuration not stated)
1210 | Cc1ccc(-c2noc(-c3cccc(S(=O)(=O)NCc4ccccc4)c3)n2)cc1
732 | Cc1ccc(-c2ccc(N3CCCC(C(=O)NCc4ccc5c(c4)OCO5)C3)nn2)cc1 (configuration not stated)
774 | COC(=O)COc1cc(-c2ccccc2)nc2ccc(NS(=O)(=O)c3ccccc3)cc12
936 | CCOC(=O)C1CCCN(c2nc(-c3ccc(Cl)cc3)nc3ccccc23)C1 (configuration not stated)
869 | COc1cccc(C(=O)NC2CCN(c3ccc(C)c(C)c3)C2=O)c1 (configuration not stated)
597 | Cc1nn(CC(=O)NCCCN2CCCC2)c(=O)c2nn(-c3ccccc3)c(C)c12
646 | Cc1sc2cc(C(=O)N3CCCC3)[nH]c2c1CN1CCCCC1
727 | Cc1ccccc1CNC(=O)C1CCN(S(=O)(=O)c2c(C)[nH]c(C)c2C(=O)N2CCCC2)CC1
960 | Cc1ccc(CNC(=O)C2CCN(c3ncccc3S(=O)(=O)N3CCCCC3)CC2)cc1
602 | CCCCN1CCN(Cc2nc(-c3ccc(N4CCCCC4)nc3)no2)CC1
700 | Cc1oc(-c2[nH]ncc2C(=O)N2CCCC2)cc1S(=O)(=O)NCc1cc(F)ccc1F
744 | COCc1nc2cccnc2n1C1CCN(C(=O)Nc2ccc(Cl)cc2)CC1
640 | Cc1cc(C(=O)N2CCOCC2)c2cc(Cl)ccc2n1
644 | Cc1ccc(CNC(=O)C2CCCCC(=O)N2C)o1 (configuration not stated)

RP-LC retention time [s] | Compound
703 | O=S(=O)(c1cccc(Cl)c1)N1CCN(c2cnn3cnnc3c2)CC1
741 | COc1ccc(OCC(=O)Nc2c(C(=O)N3CCN(c4ccccn4)CC3)oc3ccccc23)cc1
939 | COc1cccc(CNC(=O)C2(C)CCCN(C(=O)Nc3cc(C)ccc3C)C2)c1 (configuration not stated)
782 | O=C(NCc1cccc(F)c1)N1C[C@@H]2C[C@H](NS(=O)(=O)c3ccccc3)[C@H]1C2
896 | COc1ccc(NS(=O)(=O)c2cn(CC(C)C)c3ncccc23)cc1F
903 | COC(=O)C1=CN(c2cccc(Br)c2)c2cc(F)ccc2S1(=O)=O
860 | CCOc1ccc(-c2[nH]ncc2CNS(=O)(=O)c2ccc(OC)c(Cl)c2)cc1
765 | CC1(C(=O)NCc2ccc(F)cc2)CCCN(C(=O)NCc2ccco2)C1 (configuration not stated)
822 | O=C(NC1CCCC1)N1CCc2nc(-c3ccccc3)ncc2C1
651 | CCOc1ccccc1N1CCN(Cc2nc(-c3ccc(N4CCCC4)nc3)no2)CC1
732 | Cc1ccccc1CNC(=O)C1CCCN1S(=O)(=O)c1cc2c(cc1C)NC(=O)CO2 (configuration not stated)
805 | O=C(c1ccc(Cl)cc1)N1CCC(n2c(-c3ccco3)nc3cccnc32)C1 (configuration not stated)
845 | COc1cccc(NC(=O)C2CCN(S(=O)(=O)c3ccc4c(c3)sc(=O)n4C)CC2)c1
781 | Cc1ccc(C(=O)NCCn2c(=O)n(Cc3ccc(F)cc3)c3cccnc32)s1
586 | COc1ccccc1N1CCN(CCNC(=O)NCc2cccs2)CC1
719 | CC(C)CC(=O)N1CCC(c2noc(-c3ccncc3)n2)C1 (configuration not stated)
952 | O=C(NCc1ccc(-c2noc(-c3cc(F)cc(F)c3)n2)s1)C1CC1
1150 | Cc1cccc(-c2nnc(-c3ccc(Cl)c(S(=O)(=O)N4CCCC4)c3)o2)c1
848 | CCn1cc(S(=O)(=O)Nc2ccc(F)c(F)c2)c2cccnc21
726 | O=C(Nc1ccc2c(c1)OCO2)N1CCC(n2c(-c3ccco3)nc3cccnc32)C1 (configuration not stated)

The next lines start with the compound.

Compound | RP-LC retention time [s]
Cc1cc(C(=O)NC(C)C)c2cc(Br)ccc2n1 | 702
CC(C)CCNC(=O)c1cn(C)nc1S(=O)(=O)N1CCC(C)CC1 | 996
CCc1ccc(-c2csc(Nc3ccc(S(=O)(=O)Nc4nc(C)cc(C)n4)cc3)n2)cc1 | 1040
COc1ccc2c(c1)C1(CCN(C(=O)Cc3ccccc3C)C1)C(=O)N2C (configuration not stated) | 826
Cn1cc(C=C2C(=O)Nc3cccnc32)c2ccccc21 | 750
CCCN(C(=O)CC)c1nc(-c2cccc(Cl)c2)cs1 | 1320
Cc1cc(C)n(-c2ccc(SCC(=O)N3CCCc4ccccc43)nn2)n1 | 914
O=C(NCCN1CCCCCC1)C1CCCN(c2nn3c(=O)c4c(nc3s2)CCCC4)C1 (configuration not stated) | 608
O=C1NCCCCCCN(C(=O)c2cccs2)[C@H]2CCC[C@@H]12 | 745
O=C(CCc1nnc2ccc(N3CCCC3)nn12)N1CCN(c2ccccn2)CC1 | 585
Cc1nc(C)c(C(=O)NCc2c(-c3ccccc3)nc3sc(C)nn23)s1 | 737
Cc1ccc(-c2cc3c(=O)n(CC(O)c4ccccc4)ccn3n2)c(C)c1 (configuration not stated) | 982
O=C(NCc1ccccn1)C1CCCN(c2nccnc2Sc2ccccc2)C1 (configuration not stated) | 687
CCN1C(=O)c2cccnc2Sc2cc(NC(=O)c3ccc(Br)o3)ccc21 | 842
C#CCn1c(=O)c2c(ncn2C)n(C)c1=O | 629
CCN(C(=O)Cc1c(C(=O)O)c(C)cn1CC)c1cccc(Cl)c1 | 839
c1ccc2c(c1)CCC[C@H]2Nc1nc2ccccc2[nH]1 | 705
O=C(NCCc1csc(C2CCCN(C(=O)C3CC3)C2)n1)C1CC1 (configuration not stated) | 662
CCOC(=O)Cc1ccc(NC(=O)NCCc2c(C)nn(C)c2C)cc1 | 644
CCOC(=O)c1c(C)c(C(=O)NCc2ccccc2Cl)c(C)n1CC | 929
COc1cccc(CNC(=O)Cn2cccc2-c2nnc(-c3ccccc3)o2)c1 | 895
CCn1nccc1-c1cccc(-c2noc(CNC(=O)Cc3ccc(Cl)cc3)n2)c1 | 922
CCN(CC)CCNc1c(C)cc(CO)c(Cl)c1C | 640
CCOc1ccc(C(=O)NCc2ccc3c(c2)Sc2ncccc2C(=O)N3CC)cc1 | 791
Cc1sc(NC(=O)Cc2csc(-c3ccccc3)n2)nc1-c1cccc(Cl)c1 | 1270
COc1cccc(-c2noc(Cn3ccn(-c4ccccc4OC)c(=O)c3=O)n2)c1 | 810
CCOc1ccc(N2CC(c3nnc(NC(=O)CC4CCCCC4)o3)CC2=O)cc1 (configuration not stated) | 804
